Data published in PMC2850174 (The Journal of biological chemistry, 2007).
Each block holds one molecule with its values, some of them ahead of it.

Experiments:
[1] = biological target: T1, HEX-1 (Caenorhabditis elegans, UniProt Q22492); assay: p-nitrophenylglycoside hydrolysis assay, Dixon plot; format: biochemical
T1 sequence (Q22492 19-555 limits assumed): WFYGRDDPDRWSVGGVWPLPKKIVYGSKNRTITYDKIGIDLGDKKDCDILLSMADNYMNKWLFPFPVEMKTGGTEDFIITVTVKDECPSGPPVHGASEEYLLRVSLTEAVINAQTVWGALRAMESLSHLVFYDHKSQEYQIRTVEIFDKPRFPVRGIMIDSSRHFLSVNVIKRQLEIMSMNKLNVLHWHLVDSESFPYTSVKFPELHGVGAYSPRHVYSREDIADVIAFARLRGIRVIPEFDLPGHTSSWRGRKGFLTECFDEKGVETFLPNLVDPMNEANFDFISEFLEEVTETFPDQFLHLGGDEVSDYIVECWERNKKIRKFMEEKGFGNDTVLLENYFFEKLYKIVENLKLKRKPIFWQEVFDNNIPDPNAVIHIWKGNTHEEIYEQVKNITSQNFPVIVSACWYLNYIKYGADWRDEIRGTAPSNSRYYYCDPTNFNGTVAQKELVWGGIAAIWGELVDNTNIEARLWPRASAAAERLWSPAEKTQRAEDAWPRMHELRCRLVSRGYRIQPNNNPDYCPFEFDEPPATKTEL

[2] = biological target: T2, AtHEX1 (Arabidopsis thaliana, UniProt Q8L7S6); assay: p-nitrophenylglycoside hydrolysis assay, single concentration; format: biochemical; settings: read-out: % inhibition at 0.1 mM
T2 sequence (Q8L7S6 25-535 limits assumed): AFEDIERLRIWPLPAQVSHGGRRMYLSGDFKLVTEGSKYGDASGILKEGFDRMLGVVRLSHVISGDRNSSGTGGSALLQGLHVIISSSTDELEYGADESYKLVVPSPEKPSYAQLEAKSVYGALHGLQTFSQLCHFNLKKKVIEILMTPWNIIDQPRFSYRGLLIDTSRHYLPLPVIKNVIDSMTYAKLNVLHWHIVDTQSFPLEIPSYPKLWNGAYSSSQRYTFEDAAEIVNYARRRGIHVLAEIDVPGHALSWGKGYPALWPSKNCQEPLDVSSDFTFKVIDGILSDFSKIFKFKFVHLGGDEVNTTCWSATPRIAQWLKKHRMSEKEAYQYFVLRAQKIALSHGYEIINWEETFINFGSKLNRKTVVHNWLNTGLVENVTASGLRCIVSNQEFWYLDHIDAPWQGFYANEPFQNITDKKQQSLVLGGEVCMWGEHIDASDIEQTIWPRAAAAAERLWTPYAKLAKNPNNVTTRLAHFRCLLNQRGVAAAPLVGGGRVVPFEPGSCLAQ

[3] = biological target: T3, HEX-2 (Caenorhabditis elegans, UniProt G5EFL1); assay: GnGn-PA digestion, RP-HPLC; format: biochemical; settings: read-out: % inhibition at 200 μM
T3 sequence (G5EFL1 36-596 limits assumed): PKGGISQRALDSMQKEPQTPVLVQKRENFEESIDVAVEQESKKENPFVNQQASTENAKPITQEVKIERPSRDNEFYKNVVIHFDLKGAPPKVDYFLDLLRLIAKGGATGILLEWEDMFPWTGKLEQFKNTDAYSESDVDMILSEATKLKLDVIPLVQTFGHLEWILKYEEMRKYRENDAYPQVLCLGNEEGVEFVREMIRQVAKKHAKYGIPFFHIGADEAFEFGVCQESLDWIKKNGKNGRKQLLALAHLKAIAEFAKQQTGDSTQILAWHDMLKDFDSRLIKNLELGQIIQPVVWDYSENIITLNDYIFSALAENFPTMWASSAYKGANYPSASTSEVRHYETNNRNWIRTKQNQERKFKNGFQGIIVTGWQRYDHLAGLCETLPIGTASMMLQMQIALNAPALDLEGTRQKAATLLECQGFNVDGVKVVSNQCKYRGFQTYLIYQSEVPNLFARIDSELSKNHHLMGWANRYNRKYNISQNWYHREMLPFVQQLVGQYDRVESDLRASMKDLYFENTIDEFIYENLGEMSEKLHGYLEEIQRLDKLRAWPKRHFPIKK

[4] = biological target: T4, HEX-3 (Caenorhabditis elegans, UniProt A7DY67); assay: GnGn-PA digestion, RP-HPLC; format: biochemical; settings: read-out: % inhibition at 200 μM
T4 sequence (A7DY67 31-591 limits assumed): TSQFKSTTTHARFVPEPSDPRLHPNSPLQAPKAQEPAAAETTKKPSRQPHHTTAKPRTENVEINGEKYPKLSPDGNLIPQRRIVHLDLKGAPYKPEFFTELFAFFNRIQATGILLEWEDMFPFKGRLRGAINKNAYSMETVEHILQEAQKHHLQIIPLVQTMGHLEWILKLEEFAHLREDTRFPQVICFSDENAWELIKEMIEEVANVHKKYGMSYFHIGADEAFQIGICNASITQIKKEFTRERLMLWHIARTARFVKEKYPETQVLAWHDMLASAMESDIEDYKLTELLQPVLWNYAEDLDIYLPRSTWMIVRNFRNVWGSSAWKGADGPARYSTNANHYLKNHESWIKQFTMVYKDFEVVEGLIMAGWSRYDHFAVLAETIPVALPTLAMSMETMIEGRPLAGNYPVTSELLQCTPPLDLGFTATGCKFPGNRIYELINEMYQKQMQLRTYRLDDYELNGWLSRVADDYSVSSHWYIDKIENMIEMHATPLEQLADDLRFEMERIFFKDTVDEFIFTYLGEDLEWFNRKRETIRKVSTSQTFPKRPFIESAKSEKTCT

[5] = biological target: T2, AtHEX1; assay: p-nitrophenylglycoside hydrolysis assay; format: biochemical
[6] = substrate: CC(=O)N[C@H]1[C@H](Oc2ccc([N+](=O)[O-])cc2)O[C@H](CO)[C@@H](O)[C@@H]1O; assay: purified protein

Molecule: CC(=O)N[C@H]1CN2CC[C@H](O)[C@@H]2[C@@H](O)[C@@H]1O
inhibition at 200 µM [3]: ~80% | inhibition at 200 µM [4]: ~80%

B1: HEX-1 (Caenorhabditis elegans) (protein)
chain: T1 sequence (Q22492 19-555 limits assumed)
Km [6]: 1100 µM

Continued, values first:

Ki [1]: ~2 µM | inhibition at 100 µM [2]: ~90%
Molecule: CC(=O)N[C@H]1/C(=N/OC(=O)Nc2ccccc2)O[C@H](CO)[C@@H](O)[C@@H]1O [PUGNAc, O-(2-acetamido-2-deoxy-D-glucopyranosylidene)amino N-phenylcarbamate]

p-nitrophenylglycoside hydrolysis assay (about 50% inhibition at 0.2 mM) [5]: about 50% inhibition at 0.2 | Ki [1]: ~1000 µM
Molecule: CC(=O)N[C@H]1CN[C@H](CO)[C@@H](O)[C@@H]1O [2-acetamido-1,2-dideoxynojirimycin, 2-acetamido-1,2,5-trideoxy-1,5-imino-D-glucitol]
